Patent US20250282827A1, “LIPIDATED POLYMYXIN ANALOGUES” (priority 2021, published 2025)
Converted amounts (≈) assume the structure as drawn. Where two headings read alike, the source gives them in different places. Positions of bridges follow the written chain, without caps; N, C: chain ends. Non-standard residues stand in square brackets, D forms with d. Residues, ends and D or L forms follow the SMILES beside them. *: point of attachment. CH2CH2OBz(4-tBu) = CC(C)(C)c1ccc(C(=O)OCC*)cc1; Ethyl(2-butanoyloxy) = CCCC(=O)OCC*; Ethyl(2-propionyloxy) = CCC(=O)OCC*; Ethyl(2-OPiv) = CC(C)(C)C(=O)OCC*; Ethyl(2-OBz) = O=C(OCC*)c1ccccc1; X14 = CCCCCCCCCCCC(=O)OCC*; hCys = N[C@@H](CCS)C(=O)O; Octanoyl = CCCCCCCC(=O)*; Dab = NCC[C@H](N)C(=O)O; Dap = NC[C@H](N)C(=O)O; X4 = CCCCCCCC(=O)OCC*; X1 = CCCCCC(=O)OCC*; Mpa = O=C(O)CCS

System: E. coli ATCC 25922
Assay type: cell-based, Escherichia coli
Source text: All 81 compounds prepared in Examples 2 and 3 underwent screening against a panel of Gram-negative bacterium to assess their ability to inhibit bacterial growth. […] The median value is presented.

Compound	MIC E. coli ATCC 25922 (ATCC 25922)	other results
CCC(=O)OCCSCCC(=O)N[C@H](C(=O)N[C@@H](CCN)C(=O)N[C@H]1CCNC(=O)[C@H]([C@@H](C)O)NC(=O)[C@H](CCN)NC(=O)[C@H](CCN)NC(=O)[C@H](CC(C)C)NC(=O)[C@@H](Cc2ccccc2)NC(=O)[C@H](CCN)NC1=O)[C@@H](C)O [Compound 63] ([Mpa](Ethyl(2-propionyloxy))T[Dab][Dab][Dab][dF]L[Dab][Dab]T; lactam 4-C)	8 µg/mL (≈ 6.95 µM)	–
CCCCCC(=O)OCCSC[C@@H](N)C(=O)N[C@H](C(=O)N[C@@H](CCN)C(=O)N[C@H]1CCNC(=O)[C@H]([C@@H](C)O)NC(=O)[C@H](CCN)NC(=O)[C@H](CCN)NC(=O)[C@H](CC(C)C)NC(=O)[C@@H](Cc2ccccc2)NC(=O)[C@H](CCN)NC1=O)[C@@H](C)O [Compound 76] (H-[dC](X1)T[Dab][Dab][Dab][dF]L[Dab][Dab]T; lactam 4-C)	0.125 µg/mL (≈ 0.103 µM)	–
CCCCCCCC(=O)OCCSC[C@H](N)C(=O)N[C@H](C(=O)N[C@@H](CCN)C(=O)N[C@H]1CCNC(=O)[C@H]([C@@H](C)O)NC(=O)[C@H](CCN)NC(=O)[C@H](CCN)NC(=O)[C@H](CC(C)C)NC(=O)[C@@H](Cc2ccccc2)NC(=O)[C@H](CCN)NC1=O)[C@@H](C)O [Compound 68] (H-C(X4)T[Dab][Dab][Dab][dF]L[Dab][Dab]T; lactam 4-C)	1 µg/mL (≈ 0.809 µM)	–
CCC(=O)OCCSC[C@H](N)C(=O)N[C@H](C(=O)N[C@@H](CCN)C(=O)N[C@H]1CCNC(=O)[C@H]([C@@H](C)O)NC(=O)[C@H](CCN)NC(=O)[C@H](CCN)NC(=O)[C@H](CC(C)C)NC(=O)[C@@H](Cc2ccccc2)NC(=O)[C@H](CCN)NC1=O)[C@@H](C)O [Compound 61] (H-C(Ethyl(2-propionyloxy))T[Dab][Dab][Dab][dF]L[Dab][Dab]T; lactam 4-C)	>128 µg/mL	–
CCC(=O)OCCSC[C@H](N)C(=O)N[C@H](C(=O)N[C@@H](CN)C(=O)N[C@H]1CCNC(=O)[C@H]([C@@H](C)O)NC(=O)[C@H](CCN)NC(=O)[C@H](CCN)NC(=O)[C@H](CC(C)C)NC(=O)[C@@H](Cc2ccccc2)NC(=O)[C@H](CCN)NC1=O)[C@@H](C)O [Compound 81] (H-C(Ethyl(2-propionyloxy))T[Dap][Dab][Dab][dF]L[Dab][Dab]T; lactam 4-C)	16 µg/mL (≈ 13.9 µM)	–
CCCC(=O)OCCSC[C@@H](N)C(=O)N[C@H](C(=O)N[C@@H](CCN)C(=O)N[C@H]1CCNC(=O)[C@H]([C@@H](C)O)NC(=O)[C@H](CCN)NC(=O)[C@H](CCN)NC(=O)[C@H](CC(C)C)NC(=O)[C@@H](Cc2ccccc2)NC(=O)[C@H](CCN)NC1=O)[C@@H](C)O [Compound 75] (H-[dC](Ethyl(2-butanoyloxy))T[Dab][Dab][Dab][dF]L[Dab][Dab]T; lactam 4-C)	1 µg/mL (≈ 0.847 µM)	–
CCC(=O)OCCSCC[C@H](N)C(=O)N[C@H](C(=O)N[C@@H](CCN)C(=O)N[C@H]1CCNC(=O)[C@H]([C@@H](C)O)NC(=O)[C@H](CCN)NC(=O)[C@H](CCN)NC(=O)[C@H](CC(C)C)NC(=O)[C@@H](Cc2ccccc2)NC(=O)[C@H](CCN)NC1=O)[C@@H](C)O [Compound 64] (H-[hCys](Ethyl(2-propionyloxy))T[Dab][Dab][Dab][dF]L[Dab][Dab]T; lactam 4-C)	>128 µg/mL	–
CCC(=O)OCCSCCC(=O)N[C@H](C(=O)N[C@@H](CN)C(=O)N[C@H]1CCNC(=O)[C@H]([C@@H](C)O)NC(=O)[C@H](CCN)NC(=O)[C@H](CCN)NC(=O)[C@H](CC(C)C)NC(=O)[C@@H](Cc2ccccc2)NC(=O)[C@H](CCN)NC1=O)[C@@H](C)O [Compound 83] ([Mpa](Ethyl(2-propionyloxy))T[Dap][Dab][Dab][dF]L[Dab][Dab]T; lactam 4-C)	2 µg/mL (≈ 1.76 µM)	–
CCCCCCCC(=O)N[C@@H](CCN)C(=O)N[C@H](C(=O)N[C@@H](CCN)C(=O)N[C@H]1CCNC(=O)[C@H]([C@@H](C)O)NC(=O)[C@H](CCN)NC(=O)[C@H](CCN)NC(=O)[C@H](CC(C)C)NC(=O)[C@@H](Cc2ccccc2)NC(=O)[C@H](CCN)NC1=O)[C@@H](C)O [polymyxin B3, reference compound] (Octanoyl-[Dab]T[Dab][Dab][Dab][dF]L[Dab][Dab]T; lactam 4-C (inferred); N-terminus assumed)	–	activity against E. coli (MIC) (ATCC 25922): 0.25 µg/mL
CCC(=O)OCCSC[C@@H](N)C(=O)N[C@H](C(=O)N[C@@H](CCN)C(=O)N[C@H]1CCNC(=O)[C@H]([C@@H](C)O)NC(=O)[C@H](CCN)NC(=O)[C@H](CCN)NC(=O)[C@H](CC(C)C)NC(=O)[C@@H](Cc2ccccc2)NC(=O)[C@H](CCN)NC1=O)[C@@H](C)O [Compound 74] (H-[dC](Ethyl(2-propionyloxy))T[Dab][Dab][Dab][dF]L[Dab][Dab]T; lactam 4-C)	2 µg/mL (≈ 1.71 µM)	–
CCCCCCCC(=O)OCCSC[C@@H](N)C(=O)N[C@H](C(=O)N[C@@H](CCN)C(=O)N[C@H]1CCNC(=O)[C@H]([C@@H](C)O)NC(=O)[C@H](CCN)NC(=O)[C@H](CCN)NC(=O)[C@H](CC(C)C)NC(=O)[C@@H](Cc2ccccc2)NC(=O)[C@H](CCN)NC1=O)[C@@H](C)O [Compound 77] (H-[dC](X4)T[Dab][Dab][Dab][dF]L[Dab][Dab]T; lactam 4-C)	0.25 µg/mL (≈ 0.202 µM)	–
CC(C)C[C@@H]1NC(=O)[C@@H](Cc2ccccc2)NC(=O)[C@H](CCN)NC(=O)[C@@H](NC(=O)[C@H](CCN)NC(=O)[C@@H](NC(=O)[C@@H](N)CSCCOC(=O)C(C)(C)C)[C@@H](C)O)CCNC(=O)[C@H]([C@@H](C)O)NC(=O)[C@H](CCN)NC(=O)[C@H](CCN)NC1=O [Compound 71] (H-C(Ethyl(2-OPiv))T[Dab][Dab][Dab][dF]L[Dab][Dab]T; lactam 4-C)	32 µg/mL (≈ 26.8 µM)	–
CC(C)C[C@@H]1NC(=O)[C@@H](Cc2ccccc2)NC(=O)[C@H](CCN)NC(=O)[C@@H](NC(=O)[C@H](CCN)NC(=O)[C@@H](NC(=O)[C@@H](N)CSCCOC(=O)c2ccccc2)[C@@H](C)O)CCNC(=O)[C@H]([C@@H](C)O)NC(=O)[C@H](CCN)NC(=O)[C@H](CCN)NC1=O [Compound 72] (H-C(Ethyl(2-OBz))T[Dab][Dab][Dab][dF]L[Dab][Dab]T; lactam 4-C)	–	MIC E. coli ATCC 25922 (median of triplicate): 8 µg/mL (≈ 6.59 µM)
CCCC(=O)OCCSC[C@H](N)C(=O)N[C@H](C(=O)N[C@@H](CCN)C(=O)N[C@H]1CCNC(=O)[C@H]([C@@H](C)O)NC(=O)[C@H](CCN)NC(=O)[C@H](CCN)NC(=O)[C@H](CC(C)C)NC(=O)[C@@H](Cc2ccccc2)NC(=O)[C@H](CCN)NC1=O)[C@@H](C)O [Compound 66] (H-C(Ethyl(2-butanoyloxy))T[Dab][Dab][Dab][dF]L[Dab][Dab]T; lactam 4-C)	16 µg/mL (≈ 13.6 µM)	–
CC(C)C[C@@H]1NC(=O)[C@@H](Cc2ccccc2)NC(=O)[C@H](CCN)NC(=O)[C@@H](NC(=O)[C@H](CCN)NC(=O)[C@@H](NC(=O)[C@H](N)CSCCOC(=O)c2ccc(C(C)(C)C)cc2)[C@@H](C)O)CCNC(=O)[C@H]([C@@H](C)O)NC(=O)[C@H](CCN)NC(=O)[C@H](CCN)NC1=O [Compound 80] (H-[dC](CH2CH2OBz(4-tBu))T[Dab][Dab][Dab][dF]L[Dab][Dab]T; lactam 4-C)	0.5 µg/mL (≈ 0.394 µM)	–
CCC(=O)OCCSCC[C@H](N)C(=O)N[C@H](C(=O)N[C@@H](CN)C(=O)N[C@H]1CCNC(=O)[C@H]([C@@H](C)O)NC(=O)[C@H](CCN)NC(=O)[C@H](CCN)NC(=O)[C@H](CC(C)C)NC(=O)[C@@H](Cc2ccccc2)NC(=O)[C@H](CCN)NC1=O)[C@@H](C)O [Compound 84] (H-[hCys](Ethyl(2-propionyloxy))T[Dap][Dab][Dab][dF]L[Dab][Dab]T; lactam 4-C)	32 µg/mL (≈ 27.4 µM)	–
CC(C)C[C@@H]1NC(=O)[C@@H](Cc2ccccc2)NC(=O)[C@H](CCN)NC(=O)[C@@H](NC(=O)[C@H](CCN)NC(=O)[C@@H](NC(=O)[C@@H](N)CSCCOC(=O)c2ccc(C(C)(C)C)cc2)[C@@H](C)O)CCNC(=O)[C@H]([C@@H](C)O)NC(=O)[C@H](CCN)NC(=O)[C@H](CCN)NC1=O [Compound 73] (H-C(CH2CH2OBz(4-tBu))T[Dab][Dab][Dab][dF]L[Dab][Dab]T; lactam 4-C)	1 µg/mL (≈ 0.787 µM)	–
CCCCCCCCCCCC(=O)OCCSC[C@H](N)C(=O)N[C@H](C(=O)N[C@@H](CCN)C(=O)N[C@H]1CCNC(=O)[C@H]([C@@H](C)O)NC(=O)[C@H](CCN)NC(=O)[C@H](CCN)NC(=O)[C@H](CC(C)C)NC(=O)[C@@H](Cc2ccccc2)NC(=O)[C@H](CCN)NC1=O)[C@@H](C)O [Compound 70] (H-C(X14)T[Dab][Dab][Dab][dF]L[Dab][Dab]T; lactam 4-C)	8 µg/mL (≈ 6.19 µM)	–
CCC(=O)OCCSCC[C@H](N)C(=O)N[C@H](C(=O)N[C@H](CO)C(=O)N[C@H]1CCNC(=O)[C@H]([C@@H](C)O)NC(=O)[C@H](CCN)NC(=O)[C@H](CCN)NC(=O)[C@H](CC(C)C)NC(=O)[C@@H](Cc2ccccc2)NC(=O)[C@H](CCN)NC1=O)[C@@H](C)O [Compound 88] (H-[hCys](Ethyl(2-propionyloxy))T[dS][Dab][Dab][dF]L[Dab][Dab]T; lactam 4-C)	>64 µg/mL	–
CCCCCC(=O)OCCSC[C@H](N)C(=O)N[C@H](C(=O)N[C@@H](CCN)C(=O)N[C@H]1CCNC(=O)[C@H]([C@@H](C)O)NC(=O)[C@H](CCN)NC(=O)[C@H](CCN)NC(=O)[C@H](CC(C)C)NC(=O)[C@@H](Cc2ccccc2)NC(=O)[C@H](CCN)NC1=O)[C@@H](C)O [Compound 67] (H-C(X1)T[Dab][Dab][Dab][dF]L[Dab][Dab]T; lactam 4-C)	4 µg/mL (≈ 3.31 µM)	–
CCC(=O)OCCSC[C@H](N)C(=O)N[C@H](C(=O)N[C@H](CO)C(=O)N[C@H]1CCNC(=O)[C@H]([C@@H](C)O)NC(=O)[C@H](CCN)NC(=O)[C@H](CCN)NC(=O)[C@H](CC(C)C)NC(=O)[C@@H](Cc2ccccc2)NC(=O)[C@H](CCN)NC1=O)[C@@H](C)O [Compound 85] (H-C(Ethyl(2-propionyloxy))T[dS][Dab][Dab][dF]L[Dab][Dab]T; lactam 4-C)	>128 µg/mL	–
